US4123534A, “Adenine derivatives and hypolipidemic composition thereof” (Wulfing; Johann W., priority 1976, dated 1978)
Where two headings read alike, the source gives them in different places.

What was measured:
[1] = fall in serum triglyceride levels in male rats, 1 mg/kg per os; format: in vivo; settings: 3-methylpyrazole-5-carboxylic acid addition salts
Procedure: When administered to male rats the 3-methylpyrazole-5-carboxylic acid addition salts of the compound of the formula (IV) wherein R2 is respectively a methyl, ethyl, isopropyl and n-butyl at a dose of 1 mg/kg per os produced a fall in serum triglyceride levels of about 23%, 34%, 34% and 56% respectively.

[2] = acute toxicity (LD50) in mice; format: in vivo; settings: for LD50: mouse, in vivo, mice
[3] = different animal species and man; cited from earlier work
[4] = oral test in normal rats starved for 17 hours: serum lipid lowering; format: in vivo; settings: rats starved 17 hours
Procedure: Similarly, a reduction in serum free fatty acid concentration of about 40-50% was produced over the dose range 0.15 mg/kg to 5 mg/kg.

CCN(CCO)CC(O)Cn1cnc2c(N)ncnc21 (centres unmarked)
fall in serum triglyceride levels [1]: ~34%

CCCCN(CCO)CC(O)Cn1cnc2c(N)ncnc21 (centres unmarked)
fall in serum triglyceride levels [1]: ~56%

CN(CCO)CC(O)Cn1cnc2c(N)ncnc21 (stereo not drawn) [Example 1 (9-isomer), 6-Amino-9-[2-hydroxy-3-(N-methyl-N-2-hydroxyethyl)aminopropyl]purine]
acute toxicity ([2]; in words): low acute toxicity | LD50 ([2]; iv, intra-venous, read-out: LD50 by intra-venous administration): ~350 mg/kg | LD50 ([2]; oral, read-out: LD50 by oral administration): ~1000 mg/kg

Nc1ncnc2c1ncn2C[C@@H](O)[C@@H](O)C(=O)O [lentinacin]
lowering of lipid components of plasma lipoproteins (cholesterol, triglycerides and phospholipids) [3]: lowers all lipid components of the plasma - lipoproteins

CC(C)N(CCO)CC(O)Cn1cnc2c(N)ncnc21 (centres unmarked)
fall in serum triglyceride levels [1]: ~34%

CN(CCO)CC(O)Cn1cnc2c(N)ncnc21 (centres unmarked) [Example 2, 6-Amino-9-[2-hydroxy-3-(N-methyl-N-2-hydroxyethyl)aminopropyl]purine3-methylpyrazole-5-carboxylate]
reduction in serum triglyceride levels ([4]; 1 hour post administration, dose range 0.25 mg/kg to 25 mg/kg): 30-40% | reduction in serum cholesterol levels ([4]; dose of 100 mg/kg): about 30% | reduction in serum free fatty acid concentration ([4]; dose range 0.15 mg/kg to 5 mg/kg): 40-50% | fall in serum triglyceride levels [1]: about 23%
